Drawing on patent publication US11759462B2, “Spirocyclic compounds as tryptophan hydroxylase inhibitors” (priority 2013, dated 2023), this text covers IC50 for nine molecules.

The IC50 is the point on the concentration scale where inhibition reaches its midpoint.

Where only a bound is given, the exact number is not on record here.

The target in this experiment is T1, Recombinant human TPH1 (MBP tagged) (Homo sapiens, UniProt P17752).
T1 construct: cloning full length human TPH1 cDNA in to a bacterial pMAL-c5E expression vector; made in house; host or cells: E. coli BL21 (DE3)
T1 sequence (P17752 1-444): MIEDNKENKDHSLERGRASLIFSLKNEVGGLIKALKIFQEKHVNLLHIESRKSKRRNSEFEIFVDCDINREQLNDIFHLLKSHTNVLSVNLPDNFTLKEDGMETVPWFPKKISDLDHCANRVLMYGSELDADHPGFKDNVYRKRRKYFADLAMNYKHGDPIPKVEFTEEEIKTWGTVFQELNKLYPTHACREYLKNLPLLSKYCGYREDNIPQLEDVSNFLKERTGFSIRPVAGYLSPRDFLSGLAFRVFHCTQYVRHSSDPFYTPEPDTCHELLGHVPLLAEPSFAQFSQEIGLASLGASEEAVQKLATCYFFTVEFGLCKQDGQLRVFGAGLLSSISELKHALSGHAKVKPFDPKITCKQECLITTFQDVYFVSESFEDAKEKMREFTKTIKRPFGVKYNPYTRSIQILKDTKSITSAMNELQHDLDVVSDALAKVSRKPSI
Nature of the experiment: TPH1 in vitro inhibition assay (kinetic fluorescence). Type of experiment: biochemical. Particulars: read-out: TPH1 Range (TPH1 inhibition IC50). The essentials:
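Final mix: 15 nM MBP-TPH1, 30 μM Trp, 36 μM 6-methyltetrahydropterin, 25 μM ferrous ammonium sulfate, 50 mM MES pH 7.1, 1% DMSO, room temperature.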

`CCCCOC(=O)c1ccc([C@@H](Oc2cc(N3CCC4(CC3)CN[C@H](C(=O)O)C4)nc(N)n2)C(F)(F)F)c(-n2ccc(C)n2)c1` [Example 18c, (S)-8-(2-amino-6-((R)-1-(4-(butoxycarbonyl)-2-(3-methyl-1H-pyrazol-1-yl)phenyl)-2,2,2-trifluoroethoxy)pyrimidin-4-yl)-2,8-diazaspiro[4.5]decane-3-carboxylic acid]: the 50% inhibitory concentration (IC50) is less than 50 nM.
As for `Cc1ccn(-c2cc(C(=O)OC(C)(C)C)ccc2[C@@H](Oc2cc(N3CCC4(CC3)CN[C@H](C(=O)O)C4)nc(N)n2)C(F)(F)F)n1` [Example 18d, (S)-8-(2-amino-6-((R)-1-(4-(tert-butoxycarbonyl)-2-(3-methyl-1H-pyrazol-1-yl)phenyl)-2,2,2-trifluoroethoxy)pyrimidin-4-yl)-2,8-diazaspiro[4.5]decane-3-carboxylic acid], the figure is less than 50 nM; as for `Cc1ccn(-c2cc(C(=O)OCC(C)C)ccc2[C@@H](Oc2cc(N3CCC4(CC3)CN[C@H](C(=O)O)C4)nc(N)n2)C(F)(F)F)n1` [Example 18e, (S)-8-(2-amino-6-((R)-2,2,2-trifluoro-1-(4-(isobutoxycarbonyl)-2-(3-methyl-1H-pyrazol-1-yl)phenyl)ethoxy)pyrimidin-4-yl)-2,8-diazaspiro[4.5]decane-3-carboxylic acid], less than 50 nM; as for `Cc1ccn(-c2cc(C(=O)OC3CCCC3)ccc2[C@@H](Oc2cc(N3CCC4(CC3)CN[C@H](C(=O)O)C4)nc(N)n2)C(F)(F)F)n1` [Example 18f, (S)-8-(2-amino-6-((R)-1-(4-((cyclopentyloxy)carbonyl)-2-(3-methyl-1H-pyrazol-1-yl)phenyl)-2,2,2-trifluoroethoxy)pyrimidin-4-yl)-2,8-diazaspiro[4.5]decane-3-carboxylic acid], less than 50 nM.
For `C=Cc1ccc(-n2ccc(C)n2)c([C@@H](Oc2cc(N3CCC4(CC3)CN[C@H](C(=O)O)C4)nc(N)n2)C(F)(F)F)c1` [Example 19a, (S)-8-(2-amino-6-((R)-2,2,2-trifluoro-1-(2-(3-methyl-1H-pyrazol-1-yl)-5-vinylphenyl)ethoxy)pyrimidin-4-yl)-2,8-diazaspiro[4.5]decane-3-carboxylic acid], the half-maximal inhibitory concentration (IC50) is less than 50 nM.
For the molecule `C/C=C/c1ccc(-n2ccc(C)n2)c([C@@H](Oc2cc(N3CCC4(CC3)CN[C@H](C(=O)O)C4)nc(N)n2)C(F)(F)F)c1` [Example 19b, (S)-8-(2-amino-6-((R)-2,2,2-trifluoro-1-(2-(3-methyl-1H-pyrazol-1-yl)-5-((E)-prop-1-en-1-yl)phenyl)ethoxy)pyrimidin-4-yl)-2,8-diazaspiro[4.5]decane-3-carboxylic acid], the half-inhibitory concentration (IC50) is less than 50 nM.
As for `CC/C=C/c1ccc(-n2ccc(C)n2)c([C@@H](Oc2cc(N3CCC4(CC3)CN[C@H](C(=O)O)C4)nc(N)n2)C(F)(F)F)c1` [Example 19c, (S)-8-(2-amino-6-((R)-1-(5-((E)-but-1-en-1-yl)-2-(3-methyl-1H-pyrazol-1-yl)phenyl)-2,2,2-trifluoroethoxy)pyrimidin-4-yl)-2,8-diazaspiro[4.5]decane-3-carboxylic acid], the figure is less than 50 nM; as for `Cc1ccn(-c2ccc(/C=C/C(=O)O)cc2[C@@H](Oc2cc(N3CCC4(CC3)CN[C@H](C(=O)O)C4)nc(N)n2)C(F)(F)F)n1` [Example 19d, (S)-8-(2-amino-6-((R)-1-(5-((E)-2-carboxyvinyl)-2-(3-methyl-1H-pyrazol-1-yl)phenyl)-2,2,2-trifluoroethoxy)pyrimidin-4-yl)-2,8-diazaspiro[4.5]decane-3-carboxylic acid], 50 to 300 nM.
As for `Cc1ccn(-c2ccc(-c3ccc(C)c(C)c3)cc2[C@@H](Oc2cc(N3CCC4(CC3)CN[C@H](C(=O)O)C4)nc(N)n2)C(F)(F)F)n1` [Example 19e, (S)-8-(2-amino-6-((R)-1-(3′,4′-dimethyl-4-(3-methyl-1H-pyrazol-1-yl)-[1,1′-biphenyl]-3-yl)-2,2,2-trifluoroethoxy)pyrimidin-4-yl)-2,8-diazaspiro[4.5] decane-3-carboxylic acid], the half-inhibitory concentration (IC50) is less than 50 nM.
